{"source": "patent US12257252B2", "about": "“Compositions and methods for increasing tetrahydrobiopterin plasma exposure” (PTC Therapeutics MP, Inc., priority 2018, dated 2025)", "key": {"[1]": {"test": "Food effect on sepiapterin: plasma sepiapterin and BH4 in fasted and fed subjects", "type": "in vivo", "details": "sepiapterin 10 mg/kg oral", "method": "Method: Subjects received 2 oral doses of sepiapterin (10 mg/kg) separated by 1 week in a fasted and fed state. Subjects were fed a standard high-fat (approximately 50 percent of total caloric content of the meal) and high-calorie (approximately 800 to 1000 calories) meal starting 30 minutes prior to receiving their second oral dose of sepiapterin on Day 8.\nSampling for PK analysis occurred predose on Days 1 and 8 (within 30 minutes before dosing) and 0.5 hr, 1 hr, 2 hr, 4 hr, 8 hr, 12 hr, and 24 hr after the doses on Days 1 and 8. The blood concentrations of sepiapterin and BH4 were analyzed by MNG Labs."}, "[2]": {"type": "in vivo", "method": "Method: Twelve subjects were given a single dose (10 mg/kg) of sepiapterin under fasting conditions and then 7 days later under fed conditions. Standard definitions of adverse events (AE) were used. All-cause AE were those that occurred at any time; treatment-emergent adverse events (TEAE) were those that occurred at or after the time of administration of study treatment. TEAEs related to study drug were based on the opinion of the investigator. Serious AE were defined as life threatening or caused death, hospitalization or prolongation of existing hospitalization, or were a persistent or significant disability/incapacity or a substantial disruption of the ability to conduct normal life functions, or a congenital anomaly/birth defect."}, "[3]": {"test": "CSF levels of sepiapterin, BH4, BH2 and neurotransmitter metabolites after sepiapterin", "type": "in vivo", "details": "60 mg/kg; Day 1 or Day 7 +/-30 minutes from BH4 Tmax", "method": "The cerebrospinal fluid (CSF) of selected subjects is collected via lumbar puncture on Day1 (before dose) and on Day 7 (i.e., following daily dosing for 7 days) approximately 30 minutes from time of the maximum observed plasma BH4 concentration (Tmax) as determined from the blood analysis. The cerebral spinal fluid (CSF) is analyzed by MNG Labs. Descriptive statistics are provided to characterize any changes in neurotransmitter metabolism between the Day 1, and Day 7 sample results. Method: Analyses were conducted in CSF samples of subjects administered 60 mg/kg sepiapterin or placebo. The following analytes were measured: sepiapterin, BH4, BH2, homovanillic acid (HVA), and 5-hydroxyindoleacetic acid (HIAA). Descriptive (n, mean, SD, median, minimum, maximum) statistics for these analytes at Day 1 and Day 7+/−30 minutes from Tmax and change from baseline at Day 7 were determined for each analyte."}, "[4]": {"test": "Pharmacokinetics of multiple doses of sepiapterin in fed subjects", "type": "in vivo", "source_text": "Methods: Three cohorts of eight fed subjects each were randomized to receive once-daily sepiapterin or placebo for 7 days in a 6:2 ratio. A sentinel dose strategy was also used for administration of the highest sepiapterin dose."}}, "note": "Read-outs that look alike come from different tables or passages of the source.", "data": [{"smiles": "C[C@H](O)C(=O)C1=Nc2c(nc(N)[nH]c2=O)NC1", "note": "[sepiapterin, Sepiapterin]", "values": [{"measurement": "Maximum sepiapterin concentration in plasma", "setting": "[1]; fasted, 0 h (predose)", "value": 0, "unit": "nM"}, {"measurement": "Mean sepiapterin concentration in plasma", "setting": "[1]; fasted, 0 h (predose)", "value": 0, "unit": "nM"}, {"measurement": "Median sepiapterin concentration in plasma", "setting": "[1]; fasted, 0 h (predose)", "value": 0, "unit": "nM"}, {"measurement": "Maximum sepiapterin concentration in plasma", "setting": "[1]; fasted, 8 h", "value": 0, "unit": "nM"}, {"measurement": "Mean sepiapterin concentration in plasma", "setting": "[1]; fasted, 8 h", "value": 0, "unit": "nM"}, {"measurement": "Median sepiapterin concentration in plasma", "setting": "[1]; fasted, 8 h", "value": 0, "unit": "nM"}, {"measurement": "Maximum sepiapterin concentration in plasma", "setting": "[1]; fasted, 12 h", "value": 0, "unit": "nM"}, {"measurement": "Mean sepiapterin concentration in plasma", "setting": "[1]; fasted, 12 h", "value": 0, "unit": "nM"}, {"measurement": "Median sepiapterin concentration in plasma", "setting": "[1]; fasted, 12 h", "value": 0, "unit": "nM"}, {"measurement": "Maximum sepiapterin concentration in plasma", "setting": "[1]; fasted, 24 h", "value": 0, "unit": "nM"}, {"measurement": "Mean sepiapterin concentration in plasma", "setting": "[1]; fasted, 24 h", "value": 0, "unit": "nM"}, {"measurement": "Median sepiapterin concentration in plasma", "setting": "[1]; fasted, 24 h", "value": 0, "unit": "nM"}, {"measurement": "Maximum sepiapterin concentration in plasma", "setting": "[1]; fed, 0 h (predose)", "value": 0, "unit": "nM"}, {"measurement": "Mean sepiapterin concentration in plasma", "setting": "[1]; fed, 0 h (predose)", "value": 0, "unit": "nM"}, {"measurement": "Median sepiapterin concentration in plasma", "setting": "[1]; fed, 0 h (predose)", "value": 0, "unit": "nM"}, {"measurement": "concentration at 2 h", "setting": "[1]; fed, 0 h (predose), read-out: Minimum sepiapterin concentration in plasma", "value": 0, "unit": "nM"}, {"measurement": "Median sepiapterin concentration in plasma", "setting": "[1]; fed, 0.5 h", "value": 0, "unit": "nM"}, {"measurement": "concentration at 2 h", "setting": "[1]; fed, 0.5 h, read-out: Minimum sepiapterin concentration in plasma", "value": 0, "unit": "nM"}, {"measurement": "concentration at 2 h", "setting": "[1]; fed, 4 h, read-out: Minimum sepiapterin concentration in plasma", "value": 0, "unit": "nM"}, {"measurement": "Median sepiapterin concentration in plasma", "setting": "[1]; fed, 8 h", "value": 0, "unit": "nM"}, {"measurement": "concentration at 2 h", "setting": "[1]; fed, 8 h, read-out: Minimum sepiapterin concentration in plasma", "value": 0, "unit": "nM"}, {"measurement": "Maximum sepiapterin concentration in plasma", "setting": "[1]; fed, 12 h", "value": 0, "unit": "nM"}, {"measurement": "Mean sepiapterin concentration in plasma", "setting": "[1]; fed, 12 h", "value": 0, "unit": "nM"}, {"measurement": "Median sepiapterin concentration in plasma", "setting": "[1]; fed, 12 h", "value": 0, "unit": "nM"}, {"measurement": "concentration at 2 h", "setting": "[1]; fed, 12 h, read-out: Minimum sepiapterin concentration in plasma", "value": 0, "unit": "nM"}, {"measurement": "Maximum sepiapterin concentration in plasma", "setting": "[1]; fed, 24 h", "value": 0, "unit": "nM"}, {"measurement": "Mean sepiapterin concentration in plasma", "setting": "[1]; fed, 24 h", "value": 0, "unit": "nM"}, {"measurement": "Median sepiapterin concentration in plasma", "setting": "[1]; fed, 24 h", "value": 0, "unit": "nM"}, {"measurement": "concentration at 2 h", "setting": "[1]; fed, 24 h, read-out: Minimum sepiapterin concentration in plasma", "value": 0, "unit": "nM"}, {"measurement": "concentration at 0 h", "setting": "[1]; human, plasma, fasted, 0 h (predose), read-out: Minimum sepiapterin concentration in plasma", "value": 0, "unit": "nM"}, {"measurement": "concentration at 0.5 h", "setting": "[1]; human, plasma, fasted, 0.5 h, read-out: Minimum sepiapterin concentration in plasma", "value": 0, "unit": "nM"}, {"measurement": "concentration at 4 h", "setting": "[1]; human, plasma, fasted, 4 h, read-out: Minimum sepiapterin concentration in plasma", "value": 0, "unit": "nM"}, {"measurement": "concentration at 8 h", "setting": "[1]; human, plasma, fasted, 8 h, read-out: Minimum sepiapterin concentration in plasma", "value": 0, "unit": "nM"}, {"measurement": "concentration at 12 h", "setting": "[1]; human, plasma, fasted, 12 h, read-out: Minimum sepiapterin concentration in plasma", "value": 0, "unit": "nM"}, {"measurement": "concentration at 24 h", "setting": "[1]; human, plasma, fasted, 24 h, read-out: Minimum sepiapterin concentration in plasma", "value": 0, "unit": "nM"}, {"measurement": "concentration at 1 h", "setting": "[1]; human, plasma, fed, 1 h, read-out: Minimum sepiapterin concentration in plasma", "value": 0, "unit": "nM"}, {"measurement": "concentration at 2 h", "setting": "[1]; human, plasma, fed, 2 h, read-out: Minimum sepiapterin concentration in plasma", "value": 0, "unit": "nM"}, {"measurement": "Geometric mean ratio (fasted/fed, 90% CI) for plasma sepiapterin AUClast", "setting": "[1]; fasted/fed", "value": "1.29 (0.84 to 2.00)"}, {"measurement": "Geometric mean ratio (fasted/fed, 90% CI) for plasma sepiapterin Cmax", "setting": "[1]; fasted/fed", "value": "1.57 (1.21 to 2.0)"}, {"measurement": "Cmax of BH4 in the plasma, fed compared to fasted", "setting": "[1]; fed vs fasted", "value": "much higher"}, {"measurement": "Cmax of sepiapterin in the plasma, fed compared to fasted", "setting": "[1]; fed vs fasted", "value": "much lower"}, {"measurement": "TEAE", "setting": "[2]; human, in vivo, 10 mg/kg", "value": 4}, {"measurement": "TEAE related to study drug", "setting": "[2]; human, in vivo, 10 mg/kg", "value": 1}, {"measurement": "≥1 AE", "setting": "[2]; human, in vivo, 10 mg/kg", "value": 5}, {"measurement": "Incidence of adverse events, fed compared to fasted subjects", "setting": "[2]; single dose 10 mg/kg, fed vs fasted", "value": "decreased incidence of adverse events"}, {"measurement": "Sepiapterin in the CSF", "setting": "[3]", "value": "not detected"}, {"measurement": "AUC0-24 of sepiapterin", "setting": "[4]; Day 7, 60 mg/kg once daily", "value": 23, "unit": "ng·h/mL"}, {"measurement": "Drug accumulation (plasma sepiapterin and BH4 after 1 and 7 days of treatment)", "setting": "[4]; once daily for 7 days", "value": "no drug accumulation"}]}]}
